According to PMC10520499, “Next step in the development of mesoprogestins: the preclinical profile of EC313” (Frontiers in Endocrinology, 2023):
pEC50, pIC50: −log10 of the molar value. Marks after values point to notes of the source that are not given here.

Legend:
[1] = test system: estrogen-primed endometrium of immature rabbits; assay: McPhail assay, estrogen-primed rabbit endometrium; assay type: in vivo
Protocol: The secretory transformation of estrogen-primed endometrium of immature rabbits indicates the strength of the progestagenic action on the endometrium of the chosen test compound. The simultaneous administration of test compounds with progesterone can indicate potential anti-progestagenic actions.
Female rabbits received daily s.c. injections of 5.0 µg 17β-Estradiol/per animal for 6 days leading to the proliferation of the endometrium. From day 7 to day 13 the animals received doses of vehicle, EC313 (1 to 30 mg/animal/day s.c) or progesterone. On day 14, the animals were sacrificed and the uteri were processed for histological evaluation and the secretory endometrial transformation was rated according to a modified McPhail score (1 – 4).
The rating scale ranges from 1 (no or very low secretory, transformation, or agonistic activity) to 4 (highest secretory, transformation, or agonistic activity). The McPhail score of 2 (median) was selected for the comparison. The antagonistic activity was measured by the concomitant administration of progesterone ([…] s.c.).

[2] = target: T1, ligand binding domain of the human androgen receptor (AR-LBD) (Homo sapiens, UniProt P10275); assay: Competitive binding, AR ligand binding domain
T1 construct: purchased Thermo Fisher Scientific
T1 sequence (P10275 669-900 limits assumed): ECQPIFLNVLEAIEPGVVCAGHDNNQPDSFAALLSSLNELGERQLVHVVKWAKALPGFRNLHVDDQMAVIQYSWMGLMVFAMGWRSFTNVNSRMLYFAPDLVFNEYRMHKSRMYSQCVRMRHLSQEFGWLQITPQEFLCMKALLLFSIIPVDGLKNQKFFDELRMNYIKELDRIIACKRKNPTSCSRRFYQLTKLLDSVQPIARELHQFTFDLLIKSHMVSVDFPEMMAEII
Protocol: (§1) The study aimed to characterize the competitive binding profile of EC313 to relevant human nuclear receptors. For the assays, commercially available ‘ligand binding domain’ proteins were purchased (Thermo Fisher Scientific). In addition, the full-length receptor proteins were expressed in transfected HI insect cells using the `Bac-to-bac Baculovirus expression system´ (Thermo Fisher Scientific). Cellular lysates served as receptor preparation. Receptor protein preparations were incubated with tritiated reference ligands and EC313 or reference steroids at concentrations between 0.1 and 1000 nM for 2h at 4°C to reach equilibrium. Subsequently, unbound steroids were adsorbed to dextran-coated charcoal (Sigma Aldrich), separated by filtration, and the remaining radioactivity was quantified in a ß-counter (Perkin Elmer). Displacement curves were fitted using the GraphPad Prism 7 free version to obtain EC50 values. Relative binding affinity (RBA [%], (C50ref/C50test)*100) and the competition coefficient (C50test/C50ref) were used to describe the relative binding potency of EC313 compared to the reference ligands.

[3] = test system: estrogen-primed endometrium of immature rabbits; assay: McPhail assay, estrogen-primed rabbit endometrium; assay type: in vivo; conditions: 10 and 30 mg/animal/day; progesterone 1 mg/animal/day; p< 0.05
Aqueous solubility = assay type: physicochemical
human PRA = human PRA (Homo sapiens, UniProt P06401); assay: PR-A transactivation (CHO, MMTV-LUC); assay type: cell-based
human PRA, sequence (P06401 165-933): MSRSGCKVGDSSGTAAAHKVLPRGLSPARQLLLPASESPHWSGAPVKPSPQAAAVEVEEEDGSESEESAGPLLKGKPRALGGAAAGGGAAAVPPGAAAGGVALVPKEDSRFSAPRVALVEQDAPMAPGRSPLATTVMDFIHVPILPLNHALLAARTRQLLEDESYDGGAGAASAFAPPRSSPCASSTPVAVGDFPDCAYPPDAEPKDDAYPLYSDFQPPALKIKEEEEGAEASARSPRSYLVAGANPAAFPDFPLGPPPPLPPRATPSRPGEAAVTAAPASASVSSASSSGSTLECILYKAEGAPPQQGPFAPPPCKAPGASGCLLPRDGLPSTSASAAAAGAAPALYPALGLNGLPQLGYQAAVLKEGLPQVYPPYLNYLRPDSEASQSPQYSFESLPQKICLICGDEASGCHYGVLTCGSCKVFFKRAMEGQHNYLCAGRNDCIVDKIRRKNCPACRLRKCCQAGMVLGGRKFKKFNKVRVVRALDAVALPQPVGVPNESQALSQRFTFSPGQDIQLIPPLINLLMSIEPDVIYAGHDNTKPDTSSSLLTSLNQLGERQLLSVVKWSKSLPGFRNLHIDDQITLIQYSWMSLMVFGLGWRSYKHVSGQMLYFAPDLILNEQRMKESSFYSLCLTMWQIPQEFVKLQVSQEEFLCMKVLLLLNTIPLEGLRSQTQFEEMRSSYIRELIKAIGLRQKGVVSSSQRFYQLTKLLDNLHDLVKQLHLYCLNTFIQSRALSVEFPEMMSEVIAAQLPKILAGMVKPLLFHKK
Protocol: Due to the existence of two isoforms of the PR receptor (PRA and PRB) and the fact that both of them control expression of a largely different set of genes, separate assays for each of them were carried out.
In order to develop the transfection assay, plasmids were generated and isolated. Plasmids included vectors with the coding sequences for the receptor as well as the reporter gene, respectively. The vector pcDNA3.1 coding sequence for the full length of human PRA and PRB (cDNA ORF clone in pcDNA3.1+/C-(K)-DYK) was used as an expression vector for PR isoform A and B, respectively. Vector pGL4.36 coding for the progesterone responsive element MMTV and firefly luciferase reporter vector [luc2P/Hygro] were used as reporter systems (pGL4.36-MMTV/LUC).
A sufficient transactivation signal was achieved using stable transfection for the human PRA and PRB receptors and transient transfection for the MMTV-luciferase reporter gene. Therefore, the first stable transfection with the receptor of interest was performed. Thus, 0.5x10^6 CHO cells per well were plated into 6-well plates in transfection medium w/o antibiotics (RPMI phenol-free, 10% FBS,2mM L-glutamine). When the cells reached 80% confluency, transfection with receptor using FuGENE 6 in Opti-MEM medium was accomplished according to the manufacturer’s instruction. After 48h of transfection, stably transfected cells were cultured in a growth medium containing an antibiotic (G418 500 µg/mL). Only cells with the resistance gene (resistance to G418), which had been transfected together with the DNA for PRA and PRB were able to grow in this medium. Consequently, growing cell clones were selected for further steps as stable transfectants. The CHO cells stably transfected with the expression of PRA or PRB were transiently transfected with promoter MMTV/LUC vectors. […]
After 24h incubation of cells with tested compounds, luciferase activity was measured using a VICTOR™ X Multilabel Plate Reader -Perkin Elmer.

T47D cells = assay: Proliferation / arrest in Go/G1 in T47D cells; assay type: cell-based, human; design: key to Arrest in Go/G1: ↓/↑ - decreased/increased action of tested compounds.; ↓/↑ - decreased/increased action of tested compounds
[4] = test system: human progesterone receptor (full length, PRA); assay: Competitive binding, full length human progesterone receptor; conditions: compared to progesterone
Protocol: as §1

[5] = test system: human uterine fibroid xenografts; assay: Human uterine fibroid xenografts in NOD-SCID mice; assay type: in vivo; conditions: Part B; 0.01 mg/kg/day s.c.
Protocol: Fibroids/Leiomyoma are one of the clinical target indications for the development of EC313. But, there are no very reliable pre-clinical models known at present. From all experimental approaches, the transplantation of human fibroid tissue into immunodeficient mice s.c. resembles the clinical situation most closely. UPA served as a reference compound. There were two study parts: A and B. Part A is already published ([2]). Human uterine fibroid samples (2x2x2 mm; weighting roughly 8 mg) were transplanted s.c. into NOD-SCID mice 3 weeks after ovariectomy. Simultaneously, the animals were supplemented s.c. with E2-releasing pellets (0.05 mg E2/90 days release). The treatment period over 60 days (5 treatment days a week) started immediately after transplantation. There was a sham control, an E2 control, two EC313-group, one Ulipristal (UA) group, and a combination of UPA+EC313 (Part A). […] The animals were sacrificed after a treatment period of 60 days. Graft weights were the primary endpoint (parts A and B); histological findings including immunostainings of the grafts were used as secondary endpoints (part A).

[6] = test system: human uterine fibroid xenografts; design: method as in PMID 31754172; conditions: ref [2], cited from earlier work
[7] = target: T2, human estrogen receptor α (Homo sapiens, UniProt P03372); assay: Competitive binding, human estrogen receptor α; conditions: ERα, full length
T2 construct: coding for the full length human estrogen receptors α and β, respectively, were obtained from GenScript; made in house; host or cells: HI (Hi5) insect cells, baculovirus; cellular lysate
T2 sequence (P03372 whole entry): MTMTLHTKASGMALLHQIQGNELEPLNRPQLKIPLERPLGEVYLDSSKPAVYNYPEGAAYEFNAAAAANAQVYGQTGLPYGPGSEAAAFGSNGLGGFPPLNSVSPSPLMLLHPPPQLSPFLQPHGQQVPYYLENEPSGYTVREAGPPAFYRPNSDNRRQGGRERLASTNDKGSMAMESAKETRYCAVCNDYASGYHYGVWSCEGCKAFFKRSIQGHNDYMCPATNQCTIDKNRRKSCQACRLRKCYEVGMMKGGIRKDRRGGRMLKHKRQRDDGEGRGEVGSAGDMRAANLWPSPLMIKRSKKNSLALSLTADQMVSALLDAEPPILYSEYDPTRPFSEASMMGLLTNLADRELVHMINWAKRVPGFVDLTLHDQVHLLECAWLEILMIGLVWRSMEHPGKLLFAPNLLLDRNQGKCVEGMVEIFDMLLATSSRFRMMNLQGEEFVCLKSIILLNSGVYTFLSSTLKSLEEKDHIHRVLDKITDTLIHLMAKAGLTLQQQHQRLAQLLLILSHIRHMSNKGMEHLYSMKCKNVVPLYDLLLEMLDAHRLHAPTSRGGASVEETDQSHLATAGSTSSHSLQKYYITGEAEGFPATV
Protocol: as §1
There are two subtypes of estrogen receptors (ER), ERα and ERβ, coded in different genes. Plasmids pFastBac1-ERa and pFastBac1-ERb, coding for the full length human estrogen receptors α and β, respectively, were obtained from GenScript. […]

[8] = test system: human endometriotic tissue grafts; assay: Human endometriotic xenografts in immunodeficient mice; assay type: in vivo; conditions: s.c. once daily 14 days; EC313 0,01, 0.1, 1 mg/animal/day; Ulipristal acetate 1 mg/animal/day; vs vehicle control
Source text: Endometriosis is one of the expected clinical target indications for the development of EC313. But, there are no reliable pre-clinical models known at present. From all experimental approaches, the transplantation of human endometriotic tissue into immunodeficient mice resembles the clinical situation to some extent closely. Treatment of EC313 was compared with UPA as a reference compound. Two to four small pieces of human endometriotic tissue were placed into a s.c. pouch in the pelvic area of each of the ovariectomized mice. At the same time, an E2-releasing pellet (0.36 mg/pellet/60 days) was implanted s.c. in the neck of the mice. Furthermore, 2 weeks after implantation, the mice were treated with once-daily s.c. injections of vehicle, EC313 (0,01, 0.1, and 1 mg/animal/day), or Ulipristal acetate (1 mg/animal/day) for 14 days. The mice were sacrificed 24 hours after the last injection and all identified endometriotic grafts were resected, weighed, and subjected to visual examination.

Question: Which “Quotient between antagonistic and agonistic action” value ([1]; McPhail score 2 doses) does the source give for C[C@]12C[C@H](c3ccc(-c4ccoc4)cc3)C3=C4CCC(=O)C=C4CC[C@H]3[C@@H]1CC[C@]21OCCC1=C(F)F [EC313] here?
Answer: ~ 10.0*

Question: And the “maximal effect, McPhail score (average per treatment group)” value ([1]; agonistic, 1 to 30 mg/animal/day s.c., scale 1-4)?
Answer: ≤ 2.5

Question: And the “Score 2 for PR-agonistic activity” value ([1]; dose giving McPhail score 2)?
Answer: ~ 1.0 mg/animal/day s.c.

Question: And the “Score 2 for PR-antagonistic activity” value ([1]; dose giving McPhail score 2, concomitant progesterone (1 g/animal/day [sic] s.c.))?
Answer: ~ 10.0 mg/animal/day s.c.

Question: What about the “relatively more agonistic than antagonistic effects in comparison with Asoprisnil” value ([1]; rabbit, in vivo) of the same compound?
Answer: approx. 7 times

Question: What about the pIC50 ([2]; AR-LBD) of the same compound?
Answer: 5.98

Question: What about the “AR-LBD Comp. Coefficient” value ([2]; EC313 relative to Metribolone) of the same compound?
Answer: 17

Question: And the “antagonistic action with co-administered progesterone” value [3]?
Answer: significant

Question: And the aqueous solubility (Aqueous solubility)?
Answer: very low aqueous solubility

Question: What about the pIC50 (human PRA; Promegestone 35 nM, read-out: IC50, antagonism of Promegestone-induced reporter gene expression) of the same compound?
Answer: 8.10

Question: What about the pEC50 (human PRA; weak agonistic activity, in the range of the maximum concentration tested) of the same compound?
Answer: ~6.00

Question: What about the “estradiol-induced proliferation of T47D” value (T47D cells) of the same compound?
Answer: counteracts the estradiol-induced proliferation of T47D

Question: And the “Arrest in Go/G1” value (T47D cells; Proliferation, T47D cells, statistical significance not always reached)?
Answer: ↑

Question: What about the competition coefficient [4] of the same compound?
Answer: 3.4

Question: What about the “anti-fibroid activity at very low dose” value [5] of the same compound?
Answer: demonstrated

Question: What about the “uterine fibroid markers desmin and collagen” value ([6]; Part A, 0.1 and 1.0 mg EC313/kg/day) of the same compound?
Answer: markedly reduced

Question: What about the fibroid xenograft weight ([6]; Part A, 0.1 and 1.0 mg/kg/day s.c., 60 days) of the same compound?
Answer: reduced the fibroid xenograft weight dose-dependently

Question: And the “levels of ER and PR in grafts (immunohistochemistry)” value ([6]; Part A, vs control p< 0.001, vs UPA p< 0.01)?
Answer: reduced

Question: What about the “E2-induced proliferation in xenograft fibroids” value ([6]; Part A, vs control, p< 0.0001) of the same compound?
Answer: blocked significantly

Question: What about the “lowest effective dosage, uterine fibroid model” value ([6]; demonstrated previously) of the same compound?
Answer: 0.1 mg/kg/day s.c.

Question: What about the “competitive displacement of [3H]-estradiol” value [7] of the same compound?
Answer: did not cause any competitive displacement

Question: And the “weights of human endometriotic tissue grafts” value [8]?
Answer: significantly lower weights of the grafts
